Experimental data reported in US20110224240A1 (Myrexis, Inc., priority 2010, published 2011).
Values joined by “and” are separate entries in the source; they are usually repeats but may differ in a detail not shown here. Identical values can stand only once. Like-named read-outs stand apart in the source and are kept apart here.

Assays:
[1] = test system: P388; assay: Multidrug resistant cell assay, cytotoxicity; type: cell-based, murine; conditions: Mus musculus, P388, 72 h, read-out: Various MDR Cell Line Cytotoxicity IC50
[2] = Pharmacokinetic study in mice, brain; type: in vivo
Protocol: Animals were dosed with approximately 2.5 mg/kg i.v. in the tail vein or 5, 10, 30, or 60 mg/kg p.o. in fed and 60 mg/kg p.o. in a fasted state. Blood samples and whole brains were collected from five mice at each of the […] collection time points (approximately 0.05, 0.25, 1.0, 2.0, 4.0, 8.0, 12.0 and 24.0 hours) after administration of the dose. Plasma was collected from blood samples, and whole brain sample were homoginized. Both tissues were analyzed for the concentration of Compound 1. Pharmacokinetic parameters were estimated by non-compartmental analysis using WinNonlin.

[3] = test system: P388/ADR (MDR-1); assay: Multidrug resistant cell assay, cytotoxicity; type: cell-based; conditions: 72 hours, read-out: Various MDR Cell Line Cytotoxicity IC50
Protocol: P388/ADR cell lines were obtained from American Type Culture Collection (Manassas, Va.) and maintained in RPMI-1640 media supplemented with 10% FCS, 10 units/ml penicillin and streptomycin, 2 mM Glutamax and 1 mM sodium pyruvate (Invitrogen Corporation, Carlsbad, Calif.). […] Cells were allowed to adhere to the plate overnight and then incubated with the compound at final concentrations ranging from 0.13 nM to 10 uM for 72 hours. Cell viability was then assessed using the ATP-lite reagent (Perkin Elmer, Foster City, Calif.). Plates were read on a Wallac Topcount luminescence reader (Perkin Elmer, Foster City, Calif.) and the results graphed in Prism software (Graphpad Software, Inc., San Diego, Calif.). Non-linear regression with variable slope analysis was performed to obtain IC50 concentration values.

[4] = test system: A549 cells; assay: Microtubule formation in A549 cells (FIG. 1); type: cell-based; conditions: 100 nM, 1 μM, 10 μM
Protocol: FIG. 1 depicts the extent of microtubule formation in A549 cells treated with (2-aminomethylquinazolin-4-yl)-(4-methoxyphenyl)methylamine (“Compound 1”). The cells in panel “a” were treated with 100 nM concentration of Compound 1. The cells in panel “b” were treated with 1 μM concentration of Compound 1. The cells in panel “c” were treated with 10 μM concentration of Compound 1.
FIG. 1 depicts the extent of microtubule formation in A549 cells treated with Compound 1. The cells in panel “a” were treated with 100 nM concentration of Compound 1. The cells in panel “b” were treated with 1 μM concentration of Compound 1. The cells in panel “c” were treated with 10 μM concentration of Compound 1.

[5] = test system: B16-F0 tumor; assay: B16-F0 melanoma allograft study in nude mice; type: in vivo; conditions: melanoma (B16-F0) allografts in nude mice, oral dosing (50 mg/kg qd×5 or 200 mg/kg qwk×2 p.o.), relative to vehicle
Protocol: Female Crl:Nu/Nu-nuBR mice (Charles River Labs, Wilmington, Mass.) were implanted subcutaneously with 10^6 B16-F0 cells in the right flank. Animals were housed by groups in Positive Individual Ventilation cages in flat-bottom cages with no more than ten mice per cage. Environmental controls were set to maintain a temperature between 65 and 75° F. with a relative humidity of 30-70% in a 12:12 hour light:dark cycle. Animals were fed and watered ad libitum. Tumors were allowed to grow to approximately 100 mm^3 and then mice were placed into test groups (N=10). Animals were treated with vehicle, 50 mg/kg Compound 1 qd×5 p.o. or 200 mg/kg Compound 1 qwk×2 p.o. The mice were observed daily for mortality and signs of toxicity. Tumor growth was monitored externally using a caliper and volumes calculated using the formula [p/6 (width^2×length)], in which width represents the smaller tumor diameter. Studies were completed when the first animal achieved a tumor volume >1500 mm^3. Statistical analysis of variance with unadjusted pair wise comparison was performed using SAS software (Cary, N.C.).

COc1ccc(N(C)c2nc(CN)nc3ccccc23)cc1 [Compound 1]
IC50 [1]: 18 nM | Kp ([2]; Swiss Webster, mouse, brain, other: oral or intravenous, after oral or intravenous dosing, read-out: exposure in the brain relative to that in the plasma): ~7 | Tmax ([2]; Swiss Webster, mouse, brain, mice, Not Fasted, PO, 60 mg/kg): 2 h | half-life ([2]; Swiss Webster, mouse, brain, mice, Not Fasted, PO, 60 mg/kg, read-out: Brain t½ (converted)): 9 h | Brain AUC(0-inf) ([2]; mice, Not Fasted, PO, 60 mg/kg): 77290 ng·h/mL | Brain CL ([2]; mice, Not Fasted, PO, 60 mg/kg): 12.9 mL/min/kg | Brain Cmax ([2]; mice, Not Fasted, PO, 60 mg/kg): 6030 ng/mL and 20.4 μM | Brain V ([2]; mice, Not Fasted, PO, 60 mg/kg): 10.109 L/kg | Kp ([2]; mouse, brain, po, Swiss Webster mice, single 60 mg/kg p.o. dose, read-out: Brain concentrations relative to plasma levels (AUC0-∞)): ~7 | IC50 [3]: 27 nM | microtubule formation [4]: inhibits microtubule formation | inhibition of tumor growth [5]: Statistically significant (p<0.00005) inhibition of tumor growth
